The test system of the test is P388 leukemia ip, CD2F1 mice, survival T/C. Nature of the test: NCI In Vivo Anticancer Drug Screen. Data for tumor model P388 Leukemia (intraperitoneal) in CD2F1 (CDF1) mice. Conditions: endpoint: median survival time, higher = longer survival. A digest of the protocol: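 Mice carrying the transplanted tumor received test compound or vehicle. Survival was recorded in each group, and the value is the treated-group measurement divided by that of the vehicle-treated control group.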

The mark [1] stands for this setting: dose: 60.0 mg/kg/injection, schedule: Q01DX005 (ip), vehicle: saline with Tween-80.
[2] abbreviates: dose: 120.0 mg/kg/injection, schedule: Q01DX005 (ip), vehicle: saline with Tween-80.
Where [3] appears, read: dose: 240.0 mg/kg/injection, schedule: Q01DX005 (ip), vehicle: saline with Tween-80.
The mark [4] stands for this setting: dose: 50.0 mg/kg/injection, schedule: Q01DX005 (ip), vehicle: Klucel (hydroxypropylcellulose) (HPC).
Setting [5] is: dose: 100.0 mg/kg/injection, schedule: Q01DX005 (ip), vehicle: Klucel (hydroxypropylcellulose) (HPC).
The mark [6] stands for this setting: dose: 60.0 mg/kg/injection, schedule: Q01DX005 (ip), vehicle: Klucel (hydroxypropylcellulose) (HPC).
The mark [7] stands for this setting: dose: 50.0 mg/kg/injection, schedule: Q01DX009 (ip), vehicle: saline + alcohol.
Where [8] appears, read: dose: 120.0 mg/kg/injection, schedule: Q01DX005 (ip), vehicle: Klucel (hydroxypropylcellulose) (HPC).
[9] abbreviates: dose: 240.0 mg/kg/injection, schedule: Q01DX005 (ip), vehicle: Klucel (hydroxypropylcellulose) (HPC).
Where [10] appears, read: dose: 100.0 mg/kg/injection, schedule: Q04DX002 (ip), vehicle: saline with Tween-80.
[11] abbreviates: dose: 200.0 mg/kg/injection, schedule: Q04DX002 (ip), vehicle: saline with Tween-80.
Where [12] appears, read: dose: 400.0 mg/kg/injection, schedule: Q04DX002 (ip), vehicle: saline with Tween-80.

SMILES strings stand for the structures. Where “and” joins values, the source holds several entries; their conditions need not be identical. Identical values can stand only once. Inconclusive results and toxic doses are left out.

For the compound `COC(=O)NC1CCC(=O)N1Cc1ccccc1` (stereo not drawn), the T/C reads like this: under setting [1], 96 % of control; under setting [2], 94 % of control; under setting [3], 102 % of control.
Consider `O=C1c2ccccc2C(O)(C(=O)O)C1(O)CC=C(Cl)Cl` (stereo not drawn), for which the T/C was 103 % of control (dose: 12.5 mg/kg/injection, schedule: Q01DX009 (ip), vehicle: distilled water + Tween-80); 99 % of control (dose: 25.0 mg/kg/injection, schedule: Q01DX009 (ip), vehicle: distilled water + Tween-80); 91 % of control (dose: 50.0 mg/kg/injection, schedule: Q01DX009 (ip), vehicle: distilled water + Tween-80); 95 % of control (dose: 100.0 mg/kg/injection, schedule: Q01DX009 (ip), vehicle: distilled water + Tween-80); 91 % of control (dose: 200.0 mg/kg/injection, schedule: Q01DX009 (ip), vehicle: distilled water + Tween-80).
For `CSC(=S)N/N=C(\C)c1ccc[nH]1`, the T/C is, setting by setting: under setting [4], 99 % of control; under setting [5], 97 % of control.
On to `CC(=O)OC1CC2CC(O)(C(=O)CO)CC2C2CCC3=CC(=O)CC3C(C)(O)C12` (stereo not drawn), for which the T/C by setting is: under setting [1], 100 % of control; under setting [2], 93 % of control; under setting [3], 93 % of control.
In the case of `Cc1cc(C)nc(NS(=O)(=O)c2ccc(NC(=O)C(Cl)(Cl)Cl)cc2)n1`, the T/C (dose: 6.25 mg/kg/injection, schedule: Q01DX005 (ip), vehicle: saline with Tween-80) was 104 % of control; the T/C (dose: 12.5 mg/kg/injection, schedule: Q01DX005 (ip), vehicle: saline with Tween-80) was 101 % of control; the T/C (dose: 25.0 mg/kg/injection, schedule: Q01DX005 (ip), vehicle: saline with Tween-80) was 94 % of control.
For the compound `NC(=S)c1cc(Cl)cc(Cl)c1N`, the T/C (dose: 3.75 mg/kg/injection, schedule: Q01DX005 (ip), vehicle: Klucel (hydroxypropylcellulose) (HPC)) was 100 % of control; the T/C (dose: 7.5 mg/kg/injection, schedule: Q01DX005 (ip), vehicle: Klucel (hydroxypropylcellulose) (HPC)) is 98 % of control; the T/C (dose: 15.0 mg/kg/injection, schedule: Q01DX005 (ip), vehicle: Klucel (hydroxypropylcellulose) (HPC)) is 99 % of control and 96 % of control; the T/C (dose: 30.0 mg/kg/injection, schedule: Q01DX005 (ip), vehicle: Klucel (hydroxypropylcellulose) (HPC)) is 94 % of control; the T/C under setting [6] is 92 % of control.
Take `Cc1c2ccncc2c(CN(CCO)CCO)c2c3ccccc3n(C)c12`: the T/C runs as follows: (dose: 5.0 mg/kg/injection, schedule: Q01DX005 (ip), vehicle: saline) 103 % of control; (dose: 10.0 mg/kg/injection, schedule: Q01DX005 (ip), vehicle: saline) 100 % of control; (dose: 20.0 mg/kg/injection, schedule: Q01DX005 (ip), vehicle: saline) 90 % of control.
Turning to `CNC1C(=O)C(C)C(O)(C(CC(C)C(O)/C=C/C=C/CNC(=O)C(C)(C)C(O)\C(C)=C/C=C\C=C\Cc2cnc(C)o2)OC)C12C(=O)OC2COC` (stereo not drawn) (tested in a mixture with another compound), the T/C reads like this: (dose: 1.0 mg/kg/injection, schedule: Q01DX005 (ip), vehicle: DMSO) 104 % of control; (dose: 2.0 mg/kg/injection, schedule: Q01DX005 (ip), vehicle: DMSO) 93 % of control.
With `Clc1ccc(CN2COc3c(cc(Cl)c4cccnc34)C2)c(Cl)c1`, the T/C (dose: 100.0 mg/kg/injection, schedule: Q04DX003 (ip), vehicle: Klucel (hydroxypropylcellulose) (HPC)) is 102 % of control; the T/C (dose: 200.0 mg/kg/injection, schedule: Q04DX003 (ip), vehicle: Klucel (hydroxypropylcellulose) (HPC)) was 87 % of control; the T/C (dose: 400.0 mg/kg/injection, schedule: Q04DX003 (ip), vehicle: Klucel (hydroxypropylcellulose) (HPC)) is 87 % of control.
In the case of `CC(=O)OCC1OC(SP(c2ccccc2)c2ccccc2)C(OC(C)=O)C(OC(C)=O)C1OC(C)=O` (stereo not drawn), the T/C runs as follows: under setting [7], 116 % of control; (dose: 100.0 mg/kg/injection, schedule: Q01DX009 (ip), vehicle: saline + alcohol) 118 % of control; (dose: 200.0 mg/kg/injection, schedule: Q01DX009 (ip), vehicle: saline + alcohol) 108 % of control.
As for `O=S(=O)(OC(=C(c1ccccc1)c1ccccc1)c1ccccc1)C(F)(F)F`, the T/C is, setting by setting: (dose: 50.0 mg/kg/injection, schedule: Q01DX009 (ip), vehicle: olive oil, sesame oil, peanut oil) 99 % of control; (dose: 100.0 mg/kg/injection, schedule: Q01DX009 (ip), vehicle: olive oil, sesame oil, peanut oil) 107 % of control; (dose: 200.0 mg/kg/injection, schedule: Q01DX009 (ip), vehicle: olive oil, sesame oil, peanut oil) 112 % of control.
Take `CC(C)c1c(OC(=O)N(C)C)c(C#N)c2[nH]c3ccccc3n2c1=O`: the T/C by setting is: under setting [1], 109 % of control; under setting [2], 94 % of control; under setting [3], 86 % of control.
Take `Nc1nc(=O)n(CCCSc2ccc([N+](=O)[O-])cc2)cc1-c1ccc(Cl)c(Cl)c1`: the T/C runs as follows: under setting [6], 87 % of control; under setting [8], 97 % of control; under setting [9], 88 % of control.
As for `O=C1C2C3C=CC(C2C(=O)N1Cc1ccccc1)C1C2C(=O)N(Cc4ccccc4)C(=O)C2C31` (stereo not drawn), the T/C runs as follows: (dose: 12.5 mg/kg/injection, schedule: Q01DX001 (ip), vehicle: saline with Tween-80) 101 % of control; (dose: 25.0 mg/kg/injection, schedule: Q01DX001 (ip), vehicle: saline with Tween-80) 90 % of control.
On to `Cc1[nH]n(-c2cc(S(=O)(=O)O)ccc2Cl)c(=O)c1N=Nc1c(NC(=O)c2ccc(N)cc2)ccc2cc(S(=O)(=O)O)ccc12`, for which the T/C reads like this: under setting [4], 96 % of control; under setting [5], 105 % of control; (dose: 200.0 mg/kg/injection, schedule: Q01DX005 (ip), vehicle: Klucel (hydroxypropylcellulose) (HPC)) 115 % of control.
Turning to `CN(C(=O)Nc1cccc2c(NC(=O)N(C)C3CCCCC3)cccc12)C1CCCCC1`, the T/C was 93 % of control under setting [1], 87 % of control under setting [2] and 90 % of control under setting [3].
Take `COC(=O)c1ccccc1-c1ccccc1C=O`: the T/C by setting is: under setting [10], 97 % of control; under setting [11], 98 % of control; under setting [12], 100 % of control.
For `COCOc1c(C)ccc2c1CCC2`, in that order: 91 % of control, 97 % of control and 95 % of control.
Regarding `COC1=C(OC)C(=O)C(C)(CC=C(C)C)CC1=O` (stereo not drawn), the T/C (dose: 13.0 mg/kg/injection, schedule: Q01DX009 (ip), vehicle: saline + alcohol) is 113 % of control; the T/C (dose: 25.0 mg/kg/injection, schedule: Q01DX009 (ip), vehicle: saline + alcohol) was 113 % of control; the T/C under setting [7] was 103 % of control.
Take `CCCCC1CN1C(=N)OCC` (stereo not drawn): the T/C was 100 % of control (dose: 15.0 mg/kg/injection, schedule: Q01DX005 (ip), vehicle: saline with Tween-80); 100 % of control (dose: 25.0 mg/kg/injection, schedule: Q01DX005 (ip), vehicle: saline); 96 % of control (dose: 30.0 mg/kg/injection, schedule: Q01DX005 (ip), vehicle: saline with Tween-80); 101 % of control and 95 % of control under setting [1].
With `Cc1n[nH]c(=O)c2ccccc12`, the T/C was 91 % of control (dose: 100.0 mg/kg/injection, schedule: Q04DX003 (ip), vehicle: saline with Tween-80); 99 % of control (dose: 200.0 mg/kg/injection, schedule: Q04DX003 (ip), vehicle: saline with Tween-80); 107 % of control (dose: 400.0 mg/kg/injection, schedule: Q04DX003 (ip), vehicle: saline with Tween-80).
Consider `COc1cc2c(cc1OC)C1Cc3ccc(OC)c(OC)c3CN1CC2` (stereo not drawn), for which the T/C was 104 % of control (dose: 50.0 mg/kg/injection, schedule: Q01DX009 (ip), vehicle: saline); 100 % of control under setting [6]; 101 % of control (dose: 100.0 mg/kg/injection, schedule: Q01DX009 (ip), vehicle: saline); 109 % of control under setting [8]; 99 % of control (dose: 200.0 mg/kg/injection, schedule: Q01DX009 (ip), vehicle: saline); 108 % of control under setting [9].
With `CCOC1=C(N2CC2)C(=O)C(OCC)=C(N2CC2)C1=O`, the T/C reads like this: (dose: 1.25 mg/kg/injection, schedule: Q01DX009 (ip), vehicle: saline) 171 % of control; (dose: 2.5 mg/kg/injection, schedule: Q01DX009 (ip), vehicle: saline) 242 % of control.

Values taken from PubChem BioAssay AID330 (DTP/NCI, 2004).
